Test results as given in patent publication US20230104936A1, “TRPML MODULATORS” (Casma Therapeutics, Inc., priority 2019, published 2023).

Tested on: TFEB
Assay: TFEB nuclear translocation assay, HeLa wt cells
Format: cell-based
Settings: Homo sapiens, HeLa, 2 h, 2 hrs compound treatment, Table 1 does not say HeLa wt or TRPML1 KO
Summary of the method: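 HeLa wt cells were treated with compound for 2 hrs at 37° C, then fixed in 4% PFA and immunostained for TFEB with an Alexa 488 secondary and Hoechst nuclear counterstain. Automated epifluorescence imaging at ×20 gave the ratio of nuclear TFEB intensity to a perinuclear ring region, from which AC50 was derived.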

For `CC(C)(C)C(=O)N1CCN(c2ccccc2NS(=O)(=O)c2ccc(CC(F)(F)F)cc2)CC1` [Compound A-567, N-{2-[4-(2,2-dimethylpropanoyl)piperazin-1-yl]phenyl}-4-(2,2,2-trifluoroethyl)benzene-1-sulfonamide], the AC50 was at least 10 µM.

In the case of `CC(C)(C)C(=O)N1CCN(c2ccccc2NS(=O)(=O)c2ccc(OC(F)(F)F)cc2)CC1` [Compound A-568, N-{2-[4-(2,2-dimethylpropanoyl)piperazin-1-yl]phenyl}-4-(trifluoromethoxy)benzene-1-sulfonamide], the AC50 is reported as 8.01 to 9.99 µM.

`COC(F)(F)C(F)(F)c1ccc(S(=O)(=O)Nc2ccccc2N2CCN(C(=O)C(C)(C)C)CC2)cc1` [Compound A-569, N-{2-[4-(2,2-dimethylpropanoyl)piperazin-1-yl]phenyl}-4-(1,1,2,2-tetrafluoro-2-methoxyethyl)benzene-1-sulfonamide] gave an AC50 of 8.01 to 9.99 µM.

For `CC1(C)CC2(CCN(c3ccccc3NS(=O)(=O)Cc3ccccc3)CC2)CO1` [Compound A-570, N-(2-{3,3-dimethyl-2-oxa-8-azaspiro[4.5]decan-8-yl}phenyl)-1-phenylmethanesulfonamide], the AC50 was at most 2 µM.

`COCC1(C)CCN(c2ccccc2NS(=O)(=O)Cc2ccc3c(c2)COCC3)CC1` [Compound A-571, 1-(3,4-dihydro-1H-2-benzopyran-7-yl)-N-{2-[4-(methoxymethyl)-4-methylpiperidin-1-yl]phenyl}methanesulfonamide] showed an AC50 of 2.01 to 8 µM.

For `CC(C)(C)C(=O)N1CCN(c2ccccc2NS(=O)(=O)c2ccc(C(C)(C)C(F)(F)F)cc2)CC1` [Compound A-572, N-{2-[4-(2,2-dimethylpropanoyl)piperazin-1-yl]phenyl}-4-(1,1,1-trifluoro-2-methylpropan-2-yl)benzene-1-sulfonamide], the AC50 was 2.01 to 8 µM.

`CCCOc1ccc(S(=O)(=O)Nc2ccccc2N2CCN(C(=O)C(C)(C)C)CC2)cc1` [Compound A-573, N-{2-[4-(2,2-dimethylpropanoyl)piperazin-1-yl]phenyl}-4-propoxybenzene-1-sulfonamide] was tested, and the AC50 was 8.01 to 9.99 µM.

In the case of `CC(C)(C)C(=O)N1CCN(c2ccccc2NS(=O)(=O)c2ccc(SC(F)(F)F)cc2)CC1` [Compound A-574, N-{2-[4-(2,2-dimethylpropanoyl)piperazin-1-yl]phenyl}-4-[(trifluoromethyl)sulfanyl]benzene-1-sulfonamide], the AC50 is reported as 2.01 to 8 µM.

Work on `CC(C)(C)C(=O)N1CCN(c2ccccc2NS(=O)(=O)c2ccc(S(F)(F)(F)(F)F)cc2)CC1` [Compound A-575, N-{2-[4-(2,2-dimethylpropanoyl)piperazin-1-yl]phenyl}-4-(pentafluoro-λ^6-sulfanyl)benzene-1-sulfonamide] yielded an AC50 of 8.01 to 9.99 µM.

For `CC(C)(C)C(=O)N1CCN(c2ccccc2NS(=O)(=O)c2ccc(OC3CC3)cc2)CC1` [Compound A-576, 4-cyclopropoxy-N-{2-[4-(2,2-dimethylpropanoyl)piperazin-1-yl]phenyl}benzene-1-sulfonamide], the AC50 was at least 10 µM.

`COCC1(C)CCN(c2ccccc2NS(=O)(=O)c2ccc(Cl)cc2)CC1` [Compound A-577, 4-chloro-N-{2-[4-(methoxymethyl)-4-methylpiperidin-1-yl]phenyl}benzene-1-sulfonamide] showed an AC50 of 2.01 to 8 µM.

`COCC1(C)CCN(c2ccccc2NS(=O)(=O)Cc2ccc(C)cc2)CC1` [Compound A-578, N-{2-[4-(methoxymethyl)-4-methylpiperidin-1-yl]phenyl}-1-(4-methylphenyl)methanesulfonamide] showed an AC50 of 2.01 to 8 µM.

`COCC1(C)CCN(c2ccccc2NS(=O)(=O)Cc2ccccc2F)CC1` [Compound A-579, 1-(2-fluorophenyl)-N-{2-[4-(methoxymethyl)-4-methylpiperidin-1-yl]phenyl}methanesulfonamide] was tested, and the AC50 was 2.01 to 8 µM.

Work on `COCC1(C)CCN(c2ccccc2NS(=O)(=O)Cc2ccc(F)cc2)CC1` [Compound A-580, 1-(4-fluorophenyl)-N-{2-[4-(methoxymethyl)-4-methylpiperidin-1-yl]phenyl}methanesulfonamide] yielded an AC50 of 8.01 to 9.99 µM.

Compound `COCC1(C)CCN(c2ccccc2NS(=O)(=O)Cc2cccc(C#N)c2)CC1` [Compound A-581, 1-(3-cyanophenyl)-N-{2-[4-(methoxymethyl)-4-methylpiperidin-1-yl]phenyl}methanesulfonamide] has an AC50 of 2.01 to 8 µM.

With `COCC1(C)CCN(c2ccccc2NS(=O)(=O)Cc2ccc(OC)cc2)CC1` [Compound A-582, N-{2-[4-(methoxymethyl)-4-methylpiperidin-1-yl]phenyl}-1-(4-methoxyphenyl)methanesulfonamide] the AC50 was 2.01 to 8 µM.

`CC(C)(C)C(=O)N1CCN(c2ccccc2NS(=O)(=O)C2CCc3ccccc3C2)CC1` (stereo not drawn) [Compound A-583, N-{2-[4-(2,2-dimethylpropanoyl)piperazin-1-yl]phenyl}-1,2,3,4-tetrahydronaphthalene-2-sulfonamide] gave an AC50 of at least 10 µM.

Work on `CN(C)S(=O)(=O)c1ccc(S(=O)(=O)Nc2ccccc2N2CCC3(CCCO3)CC2)cc1` [Compound A-584, N1,N1-dimethyl-N4-(2-{1-oxa-8-azaspiro[4.5]decan-8-yl}phenyl)benzene-1,4-disulfonamide] yielded an AC50 of at most 2 µM.

In the case of `CN(C)S(=O)(=O)c1ccc(S(=O)(=O)Nc2ccccc2N2CCC(C(F)F)CC2)cc1` [Compound A-585, N4-{2-[4-(difluoromethyl)piperidin-1-yl]phenyl}-N1,N1-dimethylbenzene-1,4-disulfonamide], the AC50 is reported as at most 2 µM.

With `COCC1(C)CCN(c2ccccc2NS(=O)(=O)Cc2cccc(S(C)(=O)=O)c2)CC1` [Compound A-586, l-(3-methanesulfonylphenyl)-N-{2-[4-(methoxymethyl)-4-methylpiperidin-1-yl]phenyl}methanesulfonamide] the AC50 was 8.01 to 9.99 µM.

With `COCCOCCOCCN(C)S(=O)(=O)c1ccc(S(=O)(=O)Nc2ccccc2N2CCC(c3ccc(Cl)cc3F)CC2)cc1` [Compound A-587, N4-{2-[4-(4-chloro-2-fluorophenyl)piperidin-1-yl]phenyl}-N1-{2-[2-(2-methoxyethoxy)ethoxy]ethyl}-N1-methylbenzene-1,4-disulfonamide] the AC50 was 2.01 to 8 µM.

`COCCOCCOCCOc1ccc(S(=O)(=O)Nc2ccccc2N2CCC(c3ccc(Cl)cc3F)CC2)cc1` [Compound A-588, N-{2-[4-(4-chloro-2-fluorophenyl)piperidin-1-yl]phenyl}-4-{2-[2-(2-methoxyethoxy)ethoxy]ethoxy}benzene-1-sulfonamide] was tested, and the AC50 was at most 2 µM.

In the case of `CC(C)(C)C(=O)N1CCN(c2ccccc2NS(=O)(=O)c2ccc(C(C)(F)F)cc2)CC1` [Compound A-590, 4-(1,1-difluoroethyl)-N-{2-[4-(2,2-dimethylpropanoyl)piperazin-1-yl]phenyl}benzene-1-sulfonamide], the AC50 is reported as 2.01 to 8 µM.

With `CC(C)(C)C(=O)N1CCN(c2ccccc2NS(=O)(=O)c2ccc(OCC(F)(F)F)cc2)CC1` [Compound A-591, N-{2-[4-(2,2-dimethylpropanoyl)piperazin-1-yl]phenyl}-4-(2,2,2-trifluoroethoxy)benzene-1-sulfonamide] the AC50 was at least 10 µM.

Work on `COCC1(C)CCN(c2ccccc2NS(=O)(=O)Cc2ccccc2C)CC1` [Compound A-592, N-{2-[4-(methoxymethyl)-4-methylpiperidin-1-yl]phenyl}-1-(2-methylphenyl)methanesulfonamide] yielded an AC50 of 8.01 to 9.99 µM.

Work on `COCC1(C)CCN(c2ccccc2NS(=O)(=O)Cc2cccc(C)c2)CC1` [Compound A-593, N-{2-[4-(methoxymethyl)-4-methylpiperidin-1-yl]phenyl}-1-(3-methylphenyl)methanesulfonamide] yielded an AC50 of 2.01 to 8 µM.

`COCC1(C)CCN(c2ccccc2NS(=O)(=O)Cc2cccc(F)c2)CC1` [Compound A-594, 1-(3-fluorophenyl)-N-{2-[4-(methoxymethyl)-4-methylpiperidin-1-yl]phenyl}methanesulfonamide] gave an AC50 of 2.01 to 8 µM.

With `COCC1(C)CCN(c2ccccc2NS(=O)(=O)Cc2ccccc2OC)CC1` [Compound A-595, N-{2-[4-(methoxymethyl)-4-methylpiperidin-1-yl]phenyl}-1-(2-methoxyphenyl)methanesulfonamide] the AC50 was 2.01 to 8 µM.

Compound `COCC1(C)CCN(c2ccccc2NS(=O)(=O)Cc2cccc(OC)c2)CC1` [Compound A-596, N-{2-[4-(methoxymethyl)-4-methylpiperidin-1-yl]phenyl}-1-(3-methoxyphenyl)methanesulfonamide] has an AC50 of 2.01 to 8 µM.

`COCC1(C)CCN(c2ccccc2NS(=O)(=O)C2CCc3ccccc32)CC1` (stereo not drawn) [Compound A-597, N-{2-[4-(methoxymethyl)-4-methylpiperidin-1-yl]phenyl}-2,3-dihydro-1H-indene-1-sulfonamide] showed an AC50 of 8.01 to 9.99 µM.

For `CN(C)S(=O)(=O)c1ccc(S(=O)(=O)Cc2ccccc2N2CCN(C(=O)OCc3ccccc3)CC2)cc1` [Compound A-598, benzyl 4-(2-{[4-(dimethylsulfamoyl)benzenesulfonyl]methyl}phenyl)piperazine-1-carboxylate], the AC50 was at most 2 µM.

Work on `CC(C)CN1CCN(c2ccccc2CS(=O)(=O)c2ccc(S(=O)(=O)N(C)C)cc2)CC1` [Compound A-599, N,N-dimethyl-4-({2-[4-(2-methylpropyl)piperazin-1-yl]phenyl}methanesulfonyl)benzene-1-sulfonamide] yielded an AC50 of 2.01 to 8 µM.

`Cc1nc2ccc(S(=O)(=O)Nc3ccccc3N3CCN(C(=O)C(C)(C)C)CC3)cc2s1` [Compound A-600, N-{2-[4-(2,2-dimethylpropanoyl)piperazin-1-yl]phenyl}-2-methyl-1,3-benzothiazole-6-sulfonamide] showed an AC50 of at least 10 µM.

`COCC1(C)CCN(c2ccccc2NS(=O)(=O)Cc2ccccc2Cl)CC1` [Compound A-601, 1-(2-chlorophenyl)-N-{2-[4-(methoxymethyl)-4-methylpiperidin-1-yl]phenyl}methanesulfonamide] was tested, and the AC50 was 2.01 to 8 µM.

In the case of `COCC1(C)CCN(c2ccccc2NS(=O)(=O)Cc2cccc(Cl)c2)CC1` [Compound A-602, 1-(3-chlorophenyl)-N-{2-[4-(methoxymethyl)-4-methylpiperidin-1-yl]phenyl}methanesulfonamide], the AC50 is reported as 2.01 to 8 µM.

`CC(c1ccccc1N1CCN(C2COC2)CC1)S(=O)(=O)c1ccc(S(=O)(=O)N(C)C)cc1` (stereo not drawn) [Compound A-603, N,N-dimethyl-4-(1-{2-[4-(oxetan-3-yl)piperazin-1-yl]phenyl}ethanesulfonyl)benzene-1-sulfonamide] gave an AC50 of 2.01 to 8 µM.
